In ChEMBL document CHEMBL5500393, “Discovery and Optimization of Novel SaFabI Inhibitors as Specific Therapeutic Agents for MRSA Infection” (J Med Chem, 2024):
≈ marks a conversion by molar mass, not a printed value. Calls of active or inactive are those of the source. No cut-off for these calls is given here.

Key:
[1] = Hemolytic activity in sheep erythrocytes assessed as hemolysis at 256 ug/ml incubated for 1 hr by microplate reader based analysis relative to control; type: toxicity, cell-based, Ovis aries, Erythrocyte; conditions: at 256 µg/mL, read-out: Activity
[2] = Metabolic stability in mouse liver microsomes assessed as half life at 1 uM measured upto 120 mins in presence of NADPH by LC-MS analysis; type: ADME, Microsome
Staphylococcus aureus [3] = assay: Bactericidal activity against […] Staphylococcus aureus ATCC33591 assessed as reduction in bacterial count at 4 times MIC measured within 24 hrs by time-kill assay; type: functional, organism-based
[4] = Metabolic stability in mouse liver microsomes assessed as intrinsic clearance at 1 uM measured upto 120 mins in presence of NADPH by LC-MS analysis; type: ADME, Microsome; conditions: read-out: CLH
[5] = target: T1, Enoyl-[acyl-carrier-protein] reductase [NADPH] FabI (Staphylococcus aureus) (UniProt Q6GI75); assay: Binding affinity to N-terminal his 6 tagged Staphylococcus aureus Fabi (1 to […] residues) expressed in Escherichia coli BL21 assessed as increase in thermal stability at 10 ug/ml measured after 1 hr by […] assay; conditions: dose 10.0 µg/ml
T1 sequence (whole entry): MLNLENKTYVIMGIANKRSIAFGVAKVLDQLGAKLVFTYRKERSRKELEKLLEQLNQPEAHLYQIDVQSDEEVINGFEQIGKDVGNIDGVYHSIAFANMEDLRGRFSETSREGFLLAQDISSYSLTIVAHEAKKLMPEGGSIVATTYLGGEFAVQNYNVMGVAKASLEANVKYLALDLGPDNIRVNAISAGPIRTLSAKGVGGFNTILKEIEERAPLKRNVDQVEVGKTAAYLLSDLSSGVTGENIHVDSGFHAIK

[6] = Oral bioavailability in female Sprague-Dawley rat at 20 mg/kg measured upto 24 hrs by LC-MS analysis; type: ADME, organism-based; conditions: in vivo
[7] = Cytotoxicity against HEK293 cells assessed as survival rate at 800 uM measured after 48 hrs by CCK-8 method relative to control; type: toxicity, cell-based; conditions: human, read-out: Survival
[8] = Acute toxicity in female BALB/c mouse assessed as effect on heart at 800 mg/kg, po measured after 14 days by H and E staining based analysis; type: organism-based; conditions: in vivo, 336 h, time 14 day
[9] = Selectivity index, ratio of HC50 for sheep erythrocytes to MIC for Staphylococcus aureus; type: toxicity; conditions: read-out: Selectivity Index
Staphylococcus aureus [10] = assay: Antimicrobial activity against […] Staphylococcus aureus USA300 measured after 24 hrs by CLSI protocol based microdilution method; type: functional
Cell membrane [11] = assay: Induction of cell membrane permeability in methicillin-resistant Staphylococcus aureus ATCC33591 assessed as increase in fluorescence measured after 30 mins by 7-AAD staining based analysis; type: cell membranes
[12] = Acute toxicity in female BALB/c mouse assessed as effect on ALT level in serum at 800 mg/kg, po measured after 14 days; type: organism-based; conditions: in vivo, 336 h, time 14 day
[13] = Half life in female Sprague-Dawley rat at 5 mg/kg, iv measured upto 24 hrs by LC-MS analysis; type: ADME, organism-based; conditions: in vivo
[14] = Drug concentration in BALB/c mouse plasma at 800 mg/kg, po measured after 1 hr by LC-MS analysis; type: ADME, organism-based
[15] = Hemolytic activity in sheep erythrocytes assessed as hemolysis incubated for 1 hr by microplate reader based analysis; type: toxicity, cell-based, Ovis aries, Erythrocyte
Staphylococcus aureus [16] = assay: Bactericidal activity against […] Staphylococcus aureus ATCC33591 assessed as reduction in bacterial count at 8 times MIC measured within 8 to 12 hrs by time-kill assay; type: functional, organism-based; conditions: time 8-12 hrs
Cell membrane [17] = assay: Induction of cell membrane permeability in methicillin-resistant Staphylococcus aureus ATCC33591 assessed as fold increase in fluorescence intensity at 0.25 times MIC measured after 30 mins by Annexin V-FITC staining based analysis; type: cell membranes
HepG2 = assay: Cytotoxicity against human HepG2 cells assessed as survival rate at 800 uM measured after 48 hrs by CCK-8 method relative to control; type: functional; conditions: read-out: Survival
[18] = Half life in female Sprague-Dawley rat at 20 mg/kg, po measured upto 24 hrs by LC-MS analysis; type: ADME, organism-based; conditions: in vivo
Cell membrane [19] = assay: Induction of cell membrane damage in methicillin-resistant Staphylococcus aureus ATCC33591 assessed as broken cell surface at 1 times MIC measured after 30 mins by TEM analysis; type: cell membranes
[20] = Drug concentration in BALB/c mouse plasma at 1200 mg/kg, po measured after 1 hr by LC-MS analysis; type: ADME, organism-based
[21] = Acute toxicity in female BALB/c mouse assessed as effect on CREA level in serum at 800 mg/kg, po measured after 14 days; type: organism-based; conditions: in vivo, 336 h, time 14 day
[22] = Acute toxicity in female BALB/c mouse assessed as effect on body weight at 800 mg/kg, po measured after 14 days; type: organism-based; conditions: in vivo, 336 h, time 14 day
Staphylococcus aureus [23] = assay: Antimicrobial activity against Staphylococcus aureus measured after 24 hrs by CLSI protocol based microdilution method; type: functional
[24] = Drug concentration in BALB/c mouse plasma at 400 mg/kg, po measured after 1 hr by LC-MS analysis; type: ADME, organism-based
Staphylococcus aureus [25] = assay: Antimicrobial activity against Staphylococcus aureus RN4220 harbouring pCM-sfgfp::fabi (promoter fabi) measured after 24 hrs by CLSI protocol based microdilution method; type: functional
Cell membrane [26] = assay: Induction of cell membrane permeability in methicillin-resistant Staphylococcus aureus ATCC33591 assessed as fold increase in fluorescence intensity at 1 times MIC measured after 30 mins by 7-AAD staining based analysis; type: cell membranes
[27] = Acute toxicity in female BALB/c mouse assessed as effect on TP level in serum at 800 mg/kg, po measured after 14 days; type: organism-based; conditions: in vivo, 336 h, time 14 day
Staphylococcus aureus [28] = assay: Bactericidal activity against […] Staphylococcus aureus ATCC33591 measured upto 24 hr by time-kill assay; type: functional, organism-based
Cell membrane [29] = assay: Induction of cell membrane damage in methicillin-resistant Staphylococcus aureus ATCC33591 assessed as increase in red fluorescence at 1 times MIC measured after 30 mins by […] analysis; type: cell membranes
Pseudomonas aeruginosa = assay: Antimicrobial activity against Pseudomonas aeruginosa PAO1 measured after 24 hrs by CLSI protocol based microdilution method; type: functional
[30] = Acute toxicity in female BALB/c mouse assessed as effect on kidney at 800 mg/kg, po measured after 14 days by H and E staining based analysis; type: organism-based; conditions: in vivo, 336 h, time 14 day
Staphylococcus aureus [31] = assay: Antimicrobial activity against […] Staphylococcus aureus ATCC33591 measured after 24 hrs by CLSI protocol based microdilution method; type: functional
Enterococcus faecalis = assay: Antimicrobial activity against Enterococcus faecalis ATCC29212 measured after 24 hrs by CLSI protocol based microdilution method; type: functional
[32] = AUC (0 to t) in female Sprague-Dawley rat at 20 mg/kg, po measured upto 24 hrs by LC-MS analysis; type: ADME, organism-based; conditions: in vivo
Cell membrane [33] = assay: Induction of cell membrane damage in methicillin-resistant Staphylococcus aureus ATCC33591 assessed as appearance of inward wrinkling in cell surface at 1 times MIC measured after 30 mins by TEM analysis; type: cell membranes
[34] = Hemolytic activity in sheep erythrocytes assessed as hemolysis at 64 ug/ml incubated for 1 hr by microplate reader based analysis relative to control; type: toxicity, cell-based, Ovis aries, Erythrocyte; conditions: at 64 µg/mL, read-out: Activity

With Cc1c(Br)cccc1N1CC(c2nc3ccccc3n2C)CC1=O (centres undefined) the hemolysis at 1 h, 256 ug/ml [1] was 9.9%, the half-life at 1 µM [2] was 27.7 min and the Activity (Staphylococcus aureus [3]) was “Below limit of detection”. The CLint scaled at 1 µM [4] was 197 mL/min/kg, the Activity [5] was “Active” and the bioavailability [6] was 86.1%. For the same compound, the viability at 48 h, 800 µM [7] was greater than 75%, the Activity [8] was “Non-Toxic” and the selectivity ratio [9] was greater than 128. The MIC (Staphylococcus aureus [10]) was 1 µg/mL (≈ 2.6 µM), the Activity (Cell membrane [11]) was “Active” and the Activity [12] was “Non-Toxic”. The t1/2 [13] was 66 min, the concentration at 1 h [14] was 53600 ng/mL and the HC50 at 1 h [15] was greater than 256 µg/mL. For the same compound, the Activity (Staphylococcus aureus [16]) was “Below limit of detection”, the fold change (FC) (Cell membrane [17]) was 1.3 and the viability at 800 µM (HepG2) was greater than 75%. The t1/2 [18] was 522 min, the Activity (Cell membrane [19]) was “Active” and the concentration at 1 h [20] was 72100 ng/mL. For the same compound, the Activity [21] was “Non-Toxic”, the Activity [22] was “Non-Toxic” and the MIC (Staphylococcus aureus [23]) was 1 µg/mL (≈ 2.6 µM). The concentration at 1 h [24] was 24000 ng/mL, the MIC (Staphylococcus aureus [25]) was 32 µg/mL (≈ 83.3 µM) and the fold change (FC) (Cell membrane [26]) was 1.9. For the same compound, the Activity [27] was “Non-Toxic”, the Activity (Staphylococcus aureus [28]) was “Dose-Dependent Effect” and the Activity (Cell membrane [29]) was “Active”. The MIC (Pseudomonas aeruginosa) was greater than 32 µg/mL, the Activity [30] was “Non-Toxic” and the MIC (Staphylococcus aureus [31]) was 1 µg/mL (≈ 2.6 µM). The MIC (Enterococcus faecalis) was greater than 32 µg/mL, the AUCt [32] was 11149.1 ng·h/mL and the Activity (Cell membrane [33]) was “Active”. For the same compound, the hemolysis at 1 h, 64 ug/ml [34] was 3.1%.

For COc1c(Br)cccc1N1CC(c2nc3ccccc3n2C)CC1=O (centres undefined), the hemolysis at 1 h, 256 ug/ml [1] was 8.1%, the half-life at 1 µM [2] was 13.2 min and the Activity (Staphylococcus aureus [3]) was “Below limit of detection”. For the same compound, the CLint scaled at 1 µM [4] was 414 mL/min/kg, the Activity [5] was “Active” and the bioavailability [6] was 34.5%. The viability at 48 h, 800 µM [7] was greater than 65%, the Activity [8] was “Non-Toxic” and the selectivity ratio [9] was greater than 128. For the same compound, the MIC (Staphylococcus aureus [10]) was 1 µg/mL (≈ 2.5 µM), the Activity (Cell membrane [11]) was “Active” and the Activity [12] was “Non-Toxic”. The t1/2 [13] was 66 min, the concentration at 1 h [14] was 32700 ng/mL and the HC50 at 1 h [15] was greater than 256 µg/mL. For the same compound, the Activity (Staphylococcus aureus [16]) was “Below limit of detection”, the fold change (FC) (Cell membrane [17]) was 1.4 and the viability at 800 µM (HepG2) was greater than 65%. The t1/2 [18] was 558 min, the Activity (Cell membrane [19]) was “Active” and the concentration at 1 h [20] was 46500 ng/mL. The Activity [21] was “Non-Toxic”, the Activity [22] was “Non-Toxic” and the MIC (Staphylococcus aureus [23]) was 1 µg/mL (≈ 2.5 µM). The concentration at 1 h [24] was 18100 ng/mL, the MIC (Staphylococcus aureus [25]) was 32 µg/mL (≈ 79.9 µM) and the fold change (FC) (Cell membrane [26]) was 1.8. For the same compound, the Activity [27] was “Non-Toxic”, the Activity (Staphylococcus aureus [28]) was “Dose-Dependent Effect” and the Activity (Cell membrane [29]) was “Active”. The MIC (Pseudomonas aeruginosa) was greater than 32 µg/mL, the Activity [30] was “Non-Toxic” and the MIC (Staphylococcus aureus [31]) was 1 µg/mL (≈ 2.5 µM). For the same compound, the MIC (Enterococcus faecalis) was greater than 32 µg/mL, the AUCt [32] was 3127 ng·h/mL and the Activity (Cell membrane [33]) was “Active”. It also gave a hemolysis at 1 h, 64 ug/ml [34] of 1.9%.
